Measured values published in ChEMBL document CHEMBL5674860, “Optimized Dual-Glo Assay to identify co-culture-induced drug vulnerabilities in 3D CRC models” (2024).

What was measured:
Assay type in all cases: functional, Homo sapiens
Parameters in all cases: dose or concentration left out as unconfirmed
Colon cancer organoid [1] = test: Optimized Dual-Glo assay to identify co-culture induced drug vulnerabilities using donated chemical probes and chemogenomics kinase set in O06 CRC organoid and F06 CAF mono and co-culture. […] Cell viability is reported both mono and co-culture models.
Colon cancer organoid [2] = test: Optimized Dual-Glo assay to identify co-culture induced drug vulnerabilities using donated chemical probes and chemogenomics kinase set in O14 CRC organoid and F14 CAF mono and co-culture. […] Cell viability is reported both mono and co-culture models.
Colon cancer organoid [3] = test: Optimized Dual-Glo assay to identify co-culture induced drug vulnerabilities using donated chemical probes and chemogenomics kinase set in O20 CRC organoid and F20 CAF mono and co-culture. […] Cell viability is reported both mono and co-culture models.
[4] = Culture type Co-Culture, Transduced with Lucferase2-P2A-EGFP lentivirus
[5] = Culture type Co-Culture, Transduced with Renilla-dsRed lentivirus
[6] = Culture type Mono-Culture, Transduced with Lucferase2-P2A-EGFP lentivirus
[7] = Culture type Mono-Culture, Transduced with Renilla-dsRed lentivirus

| Structure (SMILES) | Cell Viability (Colon cancer organoid [1]; [4]) [%] | Cell Viability (Colon cancer organoid [1]; [5]) [%] | Cell Viability (Colon cancer organoid [1]; [6]) [%] | Cell Viability (Colon cancer organoid [1]; [7]) [%] | Cell Viability (Colon cancer organoid [2]; [4]) [%] | Cell Viability (Colon cancer organoid [2]; [5]) [%] | Cell Viability (Colon cancer organoid [2]; [6]) [%] | Cell Viability (Colon cancer organoid [2]; [7]) [%] | Cell Viability (Colon cancer organoid [3]; [4]) [%] | Cell Viability (Colon cancer organoid [3]; [5]) [%] | Cell Viability (Colon cancer organoid [3]; [6]) [%] | Cell Viability (Colon cancer organoid [3]; [7]) [%] |
| --- | --- | --- | --- | --- | --- | --- | --- | --- | --- | --- | --- | --- |
| CC(C)(C)OC(=O)N1CCCC1CNC1CCC(c2cc(F)ccc2F)(S(=O)(=O)c2ccc(Cl)cc2)CC1 (stereo unspecified) [GSI-NC] | 109.794 | 188.651 | 83.1857 | 79.5795 | 82.5384 | 107.99 | 97.33 | 95.7632 | 93.8933 | 100.789 | 108.621 | 95.0953 |
| CCC(=O)N[C@H]1CC[C@@H](C(=O)N(C)c2ccc(-c3nc4ccccc4o3)cc2)C1 [BI 99179] | 7.905 | 448.988 | 13.2074 | 86.3048 | 36.4327 | 197.223 | 76.5692 | 108.528 | 33.9891 | 149.12 | 57.7768 | 75.3735 |
| CN(C(=O)c1ccccc1)c1cc(N(C)c2ccc3c(c2)CCc2ccc(C(=O)NCCN4CCOCC4)cc2C3=O)ccc1F [FM-743] | 67.0526 | 69.6878 | 72.1659 | 109.641 | 83.789 | 122.182 | 115.906 | 98.7995 | 87.5807 | 153.202 | 104.972 | 128.329 |
| CC(=O)Nc1c(C(C)=O)c(=O)n(C)c2nc(-c3ccc(Cl)cc3Cl)c(-c3ccc(Cl)cc3)cc12 [NAPHTHYRIDINONE] | 144.905 | 170.157 | 100.862 | 101.001 | 70.6421 | 119.606 | 87.1663 | 99.5027 | 105.882 | 98.6055 | 84.0394 | 82.777 |
| CN1CCN(c2cnc3c(C4CCN(C(=O)c5ccc(OC(F)(F)F)cc5N)CC4)ncnc3c2)CC1 [BAY-885] | 128.922 | 132.533 | 82.0167 | 90.7895 | 92.1967 | 106.052 | 52.9657 | 104.304 | 78.3205 | 141.163 | 69.7079 | 80.8249 |
| C[C@]1(O)C[C@@H](c2nc(-c3ccc4ccc(-c5ccccc5)nc4c3)c3c(N)nccn32)C1 [LINSITINIB] | 53.0716 | 100.619 | 21.1574 | 74.7669 | 41.9562 | 109.271 | 38.702 | 83.4141 | 60.4709 | 65.9185 | 18.406 | 73.2347 |
| CN1C[C@H](Nc2cnn(C)c(=O)c2Br)C[C@H](c2ccccc2)C1 | 52.3497 | 181.327 | 101.698 | 109.538 | 72.8555 | 143.992 | 98.7271 | 111.977 | 159.897 | 106.068 | 104.311 | 120.493 |
| Cc1cccc(-c2cnc3occ(-c4ccc(C(=O)O)c(C5CCCC5)c4)c3c2)c1 | 95.2844 | 61.5637 | 124.633 | 116.796 | 114.736 | 94.3308 | 126.625 | 90.9911 | 88.6258 | 133.429 | 94.6873 | 103.401 |
| N#CC1(c2ccccn2)CCN(Cc2cc(C(=O)N3CCCC3)c(=O)n3ccccc23)CC1 [MSD-M1PAM-NC] | 85.4848 | 72.6928 | 94.7679 | 111.31 | 77.5991 | 103.607 | 89.6138 | 86.9553 | 102.191 | 109.338 | 89.1265 | 100.403 |
| Cl.Cn1cncc1[C@](O)(COc1ccc(C#N)cc1-c1ccc(OC(F)(F)F)cc1)c1ccc(C#N)cc1 | 31.9269 | 197.169 | 11.7395 | 58.9843 | 26.9606 | 99.4366 | 53.0011 | 61.9663 | 15.3114 | 150.357 | 17.164 | 65.8997 |
| O=C(N[C@H]1CCCCC/C=C\C2C[C@@]2(C(=O)O)NC(=O)[C@@H]2C[C@@H](Oc3ccncc3)CN2C1=O)OC1CCCC1 (stereo partly specified) [BI 1675] | 118.509 | 153.84 | 83.7502 | 91.3607 | 104.235 | 108.175 | 94.4705 | 89.8487 | 103.036 | 110.731 | 113.647 | 94.6025 |
| O=C(O)CNC(=O)c1c(O)c2ccccc2n(Cc2ccccc2)c1=O | 145.736 | 124.036 | 103.118 | 94.3602 | 94.5212 | 101.447 | 96.8462 | 89.4149 | 96.4355 | 149.859 | 78.6397 | 102.057 |
| COc1ncc(-c2ccc3nccc(-c4ccnnc4)c3c2)cc1NS(=O)(=O)c1ccc(F)cc1F [OMIPALISIB] | 2.362 | 34.7423 | 3.227 | 27.5983 | 1.562 | 61.2077 | 2.831 | 44.5325 | 2.277 | 94.8256 | 1.422 | 74.6652 |
| Cc1c(N2CCCC2)nc2ccc(Br)cc2c1C(=O)NC[C@H](CCC(=O)O)c1ccccc1Cl [BAY-6672] | 132.373 | 142.298 | 78.4477 | 99.1733 | 130.472 | 109.165 | 108.929 | 91.644 | 83.0644 | 119.315 | 90.6805 | 98.6918 |
| Cc1c(Nc2ccc(S(=O)(=O)N3CCN(C)CC3)cc2F)nc2ccc(Nc3cnn(C4CC4)c3)cn2c1=O | 81.8172 | 120.859 | 129.193 | 116.74 | 111.5 | 108.059 | 92.684 | 101.792 | 117.664 | 135.679 | 121.681 | 97.2871 |
| CCn1c(-c2nc3cc(C(=O)N4CCCC(N)C4)ccc3n2C)cc2ccccc21.Cl (stereo unspecified) | 115.054 | 117.733 | 118.281 | 112.415 | 85.5466 | 126.887 | 120.87 | 100.943 | 132.709 | 136.72 | 106.473 | 96.2054 |
| COc1cccc2c1C(=O)c1c(O)c3c(c(O)c1C2=O)CC(O)(C(=O)CO)CC3OC1CC(N)C(O)C(C)O1.Cl (stereo unspecified) | 14.9439 | 235.56 | 8.313 | 104.821 | 1.614 | 163.438 | 2.622 | 97.5605 | 5.379 | 237.178 | 7.074 | 81.7547 |
| COc1cc(C#N)ccc1S(=O)(=O)Nc1ccc2c(c1)cc(C)c(=O)n2C | 94.9001 | 111.598 | 60.6858 | 105.903 | 68.1001 | 108.689 | 83.6696 | 112.833 | 96.6614 | 124.149 | 82.6901 | 95.7551 |
